In the supplement of paper PMC8149375:

Legend:
Conditions in all cases: treatment: drug alone; 5 days
CAKI-1 [1] = assay: AUC of dose-response viability curve, drug alone (arbitrary (AUC of normalised viability)); higher = less growth inhibition
Procedure: (§1)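 Primary HTS: 8 RCC cell lines treated with 8 doses (up to 10 uM) of each library drug alone for 5 days; viability read by CellTiter-Glo and normalised to DMSO. GI50 was fitted with XLfit (4-parameter), AUC is the area under the dose-response curve, and minimum viability is the lowest fraction of DMSO viability across doses.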

A498 [2] = assay: as above
Procedure: as §1

UO-31 [3] = assay: as above
Procedure: as §1

SN12C [4] = assay: as above
Procedure: as §1

TK-10 [5] = assay: as above
Procedure: as §1

786-O [6] = assay: as above
Procedure: as §1

ACHN [7] = assay: as above
Procedure: as §1

769-P [8] = assay: as above
Procedure: as §1

CAKI-1 [9] = assay: minimum viability across doses, drug alone, relative to DMSO (fraction); higher = less growth inhibition
Procedure: as §1

A498 [10] = assay: as above
Procedure: as §1

UO-31 [11] = assay: as above
Procedure: as §1

SN12C [12] = assay: as above
Procedure: as §1

TK-10 [13] = assay: as above
Procedure: as §1

786-O [14] = assay: as above
Procedure: as §1

ACHN [15] = assay: as above
Procedure: as §1

769-P [16] = assay: as above
Procedure: as §1

CAKI-1 [17] = assay: GI50, drug alone; higher = less potent
Procedure: as §1

A498 [18] = assay: GI50, drug alone; higher = less potent
Procedure: as §1

UO-31 [19] = assay: GI50, drug alone; higher = less potent
Procedure: as §1

SN12C [20] = assay: GI50, drug alone; higher = less potent
Procedure: as §1

TK-10 [21] = assay: GI50, drug alone; higher = less potent
Procedure: as §1

786-O [22] = assay: GI50, drug alone; higher = less potent
Procedure: as §1

ACHN [23] = assay: GI50, drug alone; higher = less potent
Procedure: as §1

769-P [24] = assay: GI50, drug alone; higher = less potent
Procedure: as §1

Compound	GI50, drug alone (786-O [22]) [µM]	GI50, drug alone (ACHN [23]) [µM]	AUC of dose-response viability curve (CAKI-1 [1])	AUC of dose-response viability curve (A498 [2])	AUC of dose-response viability curve (UO-31 [3])	AUC of dose-response viability curve (SN12C [4])	AUC of dose-response viability curve (TK-10 [5])	AUC of dose-response viability curve (786-O [6])	AUC of dose-response viability curve (ACHN [7])	AUC of dose-response viability curve (769-P [8])	minimum viability across doses (CAKI-1 [9])	minimum viability across doses (A498 [10])	minimum viability across doses (UO-31 [11])	minimum viability across doses (SN12C [12])	minimum viability across doses (TK-10 [13])	minimum viability across doses (786-O [14])	minimum viability across doses (ACHN [15])	minimum viability across doses (769-P [16])	GI50, drug alone (CAKI-1 [17]) [µM]	GI50, drug alone (A498 [18]) [µM]	GI50, drug alone (UO-31 [19]) [µM]	GI50, drug alone (SN12C [20]) [µM]	GI50, drug alone (TK-10 [21]) [µM]	GI50, drug alone (769-P [24]) [µM]
C[C@@H]1CN(CC(=O)Nc2ccc3c(c2)Cc2cccc(-c4cc(=O)cc(N5CCOCC5)o4)c2S3)C[C@H](C)O1	6.61	> 10	2.8	4.69	6.19	3.35	3.25	3.37	3.15	3.53	0.224	0.893	1.35	0.646	0.701	0.35	0.548	0.855	4	> 10	> 10	> 10	> 10	> 10
O=c1cc(-c2cccc3c2Sc2ccccc2S3)oc(N2CCOCC2)c1	> 10	0.0705	3.06	3.49	4	3.23	3.14	2.98	2.57	3.21	0.648	0.864	0.981	0.864	0.791	0.638	0.496	0.864	> 10	> 10	> 10	> 10	> 10	> 10
Cc1cc(Nc2cc(CN3CCOCC3)c3nc(C)c(Cc4ccc(Cl)cc4F)n3n2)[nH]n1	0.3	1.98	3.03	4.33	4.69	2.89	2.8	1.96	2.79	3.12	0.0334	0.338	0.0145	0.216	0.0389	0.00692	0.103	0.063	2.28	8.52	7.64	3.84	3.03	4.13

Continued, in another order:

GI50, drug alone (786-O [22]) [µM]	GI50, drug alone (ACHN [23]) [µM]	Compound	AUC of dose-response viability curve (CAKI-1 [1])	AUC of dose-response viability curve (A498 [2])	AUC of dose-response viability curve (UO-31 [3])	AUC of dose-response viability curve (SN12C [4])	AUC of dose-response viability curve (TK-10 [5])	AUC of dose-response viability curve (786-O [6])	AUC of dose-response viability curve (ACHN [7])	AUC of dose-response viability curve (769-P [8])	minimum viability across doses (CAKI-1 [9])	minimum viability across doses (A498 [10])	minimum viability across doses (UO-31 [11])	minimum viability across doses (SN12C [12])	minimum viability across doses (TK-10 [13])	minimum viability across doses (786-O [14])	minimum viability across doses (ACHN [15])	minimum viability across doses (769-P [16])	GI50, drug alone (CAKI-1 [17]) [µM]	GI50, drug alone (A498 [18]) [µM]	GI50, drug alone (UO-31 [19]) [µM]	GI50, drug alone (SN12C [20]) [µM]	GI50, drug alone (TK-10 [21]) [µM]	GI50, drug alone (769-P [24]) [µM]
> 10	0.136	c1ccc2c(CCNc3ccc(Nc4ccncc4)cc3)c[nH]c2c1	2.31	2.76	1.6	2.28	2.34	0.978	1.55	2.32	0.0912	0.022	0.00809	0.0036	0.00837	0.00353	0.00286	0.0434	0.66	1.36	0.115	0.881	1.03	0.532
0.0843	0.387	CCn1cc(-c2ccnc3[nH]c(-c4cccc(CN(C)C)c4)cc23)c(-c2ccc(NC(=O)N(C)C)cc2)n1	2.3	3.74	5.13	2.2	2.54	1.97	2.08	2.8	0.0471	0.121	0.0615	0.0272	0.0985	0.0121	0.0251	0.165	0.49	3.07	6.09	0.686	1.53	1.44
